Entries after “also recorded” stand apart in the source; their conditions may differ. Read-outs that look alike come from different tables or passages of the source.

Data set [1] has as its system primary dermal fibroblasts cells. Briefly: Viability of fibroblast cells, MTT assay. It is filed as cell-based, Human. The following applies: MTT, 1-100 μM, 24 h. As to the method:
(§1) Viability of fibroblast cells was examined with the use of the MTT assay. MTT, a yellow tetrazole, is reduced to purple formazan only in living cells. Absorbance of the coloured solution was measured by a spectrophotometer.
(§2) These studies were performed on primary dermal fibroblasts cells. The cells were maintained in DMEM supplemented with 10% fetal bovine serum (FBS), 2 mM glutamin, 50 U/mL penicillin and […] streptomycin at 37 °C in a 5% CO2 incubator. For experiments, cells cultures were plated at a density of 1 × 10^6/well in six-well culture plates (Costar, St. Louis, MO, USA) in 2 mL of growth medium. Cells reached about 80% of confluency at day 2 were used for the assays.
(§3) Toxicity of the tested substances was determined using an MTT [3-(4,5-dimethylthiazol-2-yl)-2,5-diphenyltetrazolium bromide)] assay. Palmitoyl and lipoyl peptides were dissolved in DMSO (dimethyl sulfoxide), the other peptides in DMEM, and added to the cell culture medium. Simultaneously, the same concentrations of DMSO without peptides were added to cells, serving as controls. The final peptide concentrations were: 1 μM, 10 μM, and 100 μM. After 24 h incubation, the cells cultured with the tested compounds were washed with phosphate-buffered saline (PBS) and then incubated for 4 h in 2 mL of MTT solution (5 mg/mL). After removing the medium, the cells were lysed in 200 μL of DMSO with 20 μL of Sorensen’s buffer (pH 10.5, 0.1 mol/L glycine with 0.1 mol/L NaCl). The absorbance of converted dye in living cells was measured at a wavelength of 570 nm. The mean values ± SD from three independent experiments done in duplicate are presented.
Background: Tetrazolium assays rely on reduction of a dye to a coloured formazan, in cell work by metabolically active cells.

A short description of data set [2]: Viability of fibroblast cells, MTT assay. The data set is classed as cell-based, Human. The note with it: human, primary dermal fibroblast cells, 24 h, MTT, ± 2, read-out: Viability of fibroblast cells. As to the method: as §1, §2, §3
Data set [3] concerns the target T1, plasmin (Homo sapiens, UniProt P00747).
T1 construct: purchased Chromogenix (Milano, Italy)
Briefly: Amidolytic activity of plasmin (chromogenic substrate H-D-Val-Leu-Lys-pNA). The data set is classed as biochemical. As to the method: (§4) The determination of amidolytic activity was performed as previously described by Okada. A detailed description of the method is given below: 0.2 mL of the examined peptides (0.15 M NaCl as contro), a buffer, and 0.1 mL of enzyme solution were mixed. The final peptide concentrations were: 0.2 mM, 2 mM, and 20 mM. The mixture was incubated at 37 °C for 3 min; then the synthetic substrate solution was added in the same buffer. After 20 min of incubation, the reaction was stopped by adding 0.1 mL of 50% acetic acid and the absorbance of the released p-nitroaniline was measured at 405 nm. The mean values from three independent experiments done in duplicate are presented. A method error of 5% was adopted as statistical error. IC50 value was considered as the concentration of inhibitor that reduces absorbance by 50%, compared with absorbance measured under the same conditions without an inhibitor. IC50 was calculated mathematically by extrapolation using a linear plot. IC50 values are presented in Table 1 and Table 2, and graphically in Figure 1.
(§5) The buffers and the enzyme solutions included: • Tris buffer—0.6 mL (pH 8.8), enzyme: urokinase (50 units/mL), synthetic substrate: pyro-Glu-Gly-Arg-pNA·HCl (0.1 mL, 3 mM); • Tris buffer—0.5 mL (pH 8.4), enzyme: thrombin (1 units/mL), synthetic substrate: H-D-Phe-Pip-Arg-pNA (0.2 mL, 0.75 mM); • Tris buffer—0.5 mL (pH 7.4), enzyme: plasmin (0.4 units/mL), synthetic substrate: H-D-Val-Leu-Lys-pNA (0.2 mL, 3 mM); • Borate buffer—0.5 mL (pH 7.5), enzyme: trypsin (0.4 units/mL), synthetic substrate: Bzl-L-Arg-pNA·HCl (0.2 mL, 8 mM); • Tris buffer—0.6 mL (pH 9.0), enzyme: kallikrein (3 units/mL), synthetic substrate: H-D-Val-Leu-Arg-pNA·2HCl (0.1 mL, 75 mM); • Tris buffer—0.6 mL (pH 8.4), enzyme: t-PA ([…]), synthetic substrate: H-D-Ile-Pro-Arg-pNA (0.1 mL, 10 mM) • Tris buffer—0.6 mL (pH 9.0), enzyme: chymotrypsin (0.4 units/mL), synthetic substrate: Suc-Phe-pNA (0.2 mL, 8 mM)

The target of data set [4] is T2, thrombin (Bos taurus, UniProt P00735).
T2 construct: purchased Lubelska Wytwórnia Szczepionek (Lublin, Poland)
Briefly: Amidolytic activity of thrombin (chromogenic substrate H-D-Phe-Pip-Arg-pNA). It is filed as biochemical. The note with it: amidolytic activity; Tris pH 8.4, 37 °C; IC50 by extrapolation using a linear plot; error 5%; read-out: IC50 Thrombin. As to the method: The determination of amidolytic activity was performed as previously described by Okada. A detailed description of the method is given below: 0.2 mL of the examined peptides (0.15 M NaCl as contro), a buffer, and 0.1 mL of enzyme solution were mixed. The final peptide concentrations were: 0.2 mM, 2 mM, and 20 mM. The mixture was incubated at 37 °C for 3 min; then the synthetic substrate solution was added in the same buffer. […] The mean values from three independent experiments done in duplicate are presented. A method error of 5% was adopted as statistical error. […] IC50 was calculated mathematically by extrapolation using a linear plot.

The test system of data set [5] is collagen synthesis. On the set-up: method as in PMID 19268583. The note with it: cited from earlier work.
In data set [6] the test system is fibroblast cells. Briefly: DNA biosynthesis, [3H] thymidine incorporation in fibroblasts. It is filed as cell-based, Human. The note with it: for DNA biosynthesis: 24 h, ± 2; for DNA synthesis: 10, 50, 100 μM. As to the method:
In the radioactive method of DNA measurement in the liquid sample, the radioactive activity of the sample was measured. This technique involves mixing a radioactive material with a scintillation fluid/liquid (which contains a scintillator), resulting in photon emission. This emission is counted by a suitable detector.
To examine the effect of the studied compounds on DNA biosynthesis of fibroblast cells, they were plated in 24-well tissue culture dishes at 1 × 10^5 cells per well with 1 mL of growth medium. The plates were incubated after 48 h with the examined peptides and 0.5 μCi of [^3H] thymidine (6.7 Ci/mmol) at 37 °C. The final peptide concentrations were: 10 μM, 50 μM, and 100 μM. After 24 h incubation, the cells were rinsed with PBS three times and twice with 5% trichloroacetic acid. To measure the radioactivity incorporated into DNA, the cells were solubilized with 1 mL of 0.1 M sodium hydroxide containing 1% SDS and an addition of scintillation liquid (9 mL) (https://www.perkinelmer.com/pl/category/scintillation-cocktails). Radioactivity was determined in a scintillation counter, i.e., Liquid Scintillation Analyzer Tri-Carb 2810 TR (Perkin Elmer, Waltham, MA USA)) with Quanto Smart TM software (Perkin Elmer).
(Dividing cells build labelled thymidine or BrdU into new DNA.)

The target in data set [7] is T3, urokinase (Homo sapiens, UniProt P00749).
T3 construct: purchased Sigma (Schnelldorf, Germany)
Briefly: Amidolytic activity of urokinase (chromogenic substrate pyro-Glu-Gly-Arg-pNA). The data set is classed as biochemical. The note with it: amidolytic activity; Tris pH 8.8, 37 °C; IC50 by extrapolation using a linear plot; error 5%; read-out: IC50 Urokinase. As to the method:
as §4, §5

For data set [8], the system named is Fibroblasts. Briefly: Collagen biosynthesis, 5[3H]-proline incorporation in fibroblasts. It is filed as cell-based, Human. The following applies: 24 h, ± 2. As to the method: In collagen biosynthesis assays cells were counted in a haemocytometer and incorporation of a radioactive precursor 5[^3H]-proline into collagen was measured. Total protein synthesis was calculated from the sum of radioactivity of collagenase-resistant proteins and collagen digest.
Fibroblasts were cultured in six-well plates until confluence. Then they were incubated for 24 h in growth medium in the absence or presence of the tested peptides and 5[^3H]-proline (5 µCi/mL, 28 Ci/mM). The final peptide concentrations were: 10 μM, 50 μM and 100 μM. In accordance with the method proposed by Peterkofsky and Diegelmann, incorporation of the radioactive precursor into collagen was determined by digesting the proteins with purified Clostridium histolyticum collagenase. Finally, the monolayers were washed with sterile 10mM PBS, pH 7.4 four times, and cell membranes were disrupted using a sonicator. Aliquots of the cell homogenate were removed for protein measurement using the BCA™ Protein Assay Kit (Pierce, Waltham, MA USA). The results are shown as combined values for cell plus medium fractions.

In data set [9] the test system is collagen biosynthesis. Also noted: method as in PMID 24090916. The following applies: single concentration of 0.5 mM; cited from earlier work.
The mark [10] stands for this setting: amidolytic activity, Tris pH 7.4, 37 °C, IC50 by extrapolation using a linear plot, error 5%, read-out: IC50 Plasmin.

T1 sequence (P00747 581-810 limits assumed): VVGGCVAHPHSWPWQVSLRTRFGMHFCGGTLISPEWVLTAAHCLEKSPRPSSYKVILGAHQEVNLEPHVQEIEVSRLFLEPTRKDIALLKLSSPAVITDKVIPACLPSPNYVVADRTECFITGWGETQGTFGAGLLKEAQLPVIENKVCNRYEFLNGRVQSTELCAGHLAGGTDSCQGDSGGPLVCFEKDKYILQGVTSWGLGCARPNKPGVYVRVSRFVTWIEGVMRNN
T1 sequence (P00747 97-580 partner limits assumed): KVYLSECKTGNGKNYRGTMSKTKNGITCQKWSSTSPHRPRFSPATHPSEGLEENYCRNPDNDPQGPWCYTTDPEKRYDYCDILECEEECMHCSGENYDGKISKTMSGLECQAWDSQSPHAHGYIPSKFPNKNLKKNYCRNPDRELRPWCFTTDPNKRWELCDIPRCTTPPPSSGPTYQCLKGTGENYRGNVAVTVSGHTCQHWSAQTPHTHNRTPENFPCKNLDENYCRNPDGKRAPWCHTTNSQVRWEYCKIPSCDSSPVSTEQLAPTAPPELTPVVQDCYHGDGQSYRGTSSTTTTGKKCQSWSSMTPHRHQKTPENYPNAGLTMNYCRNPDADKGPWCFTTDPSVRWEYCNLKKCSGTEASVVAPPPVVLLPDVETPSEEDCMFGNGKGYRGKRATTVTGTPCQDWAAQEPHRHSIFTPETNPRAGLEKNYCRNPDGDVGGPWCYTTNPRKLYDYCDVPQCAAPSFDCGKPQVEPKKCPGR

Take “H-KTTKS-OH [Peptide 1, H-Lys-Thr-Thr-Lys-Ser-OH, reference compound]”: the “cytotoxicity / cell growth effect on fibroblasts” value (from here on “cytotoxicity / cell growth effect”) in data set [1] is recorded as “did not exhibit fibroblast growth”. Also, in data set [2], the viability – broadly, a read-out of living cells in per cent, often relative to untreated cells – at 24 h, 1 µmol/L was determined as 95%; the viability at 24 h, 10 µmol/L was found to be 82%; the viability at 24 h, 100 µmol/L came out at 80%. In addition, the IC50 in data set [3] (setting [10]) is 0.28 ± 0.014 mM. In addition, in [4], the IC50 was 7.81 ± 0.39 mM. The “increase of collagen synthesis” value in [5] is listed as “no such effect”.
Consider “Ac-KTTRS-NH2 [Peptide 14, Ac-Lys-Thr-Thr-Arg-Ser-NH2]”, for which the “cytotoxicity / cell growth effect” value in data set [1] was “exhibited cell growth effects; also recorded: showed proliferative effect; also recorded: exhibited the effect of cell growth”. Also, in data set [2], the viability at 24 h, 1 µmol/L is 112%. In addition, the viability at 24 h, 10 µmol/L in data set [2] was found to be 135%. In addition, in data set [2], the viability at 24 h, 100 µmol/L was determined as 150%. Besides, the IC50 was 5.34 ± 0.27 mM in [3] (setting [10]), 2.95 ± 0.15 mM in data set [4] and 5.56 ± 0.28 mM in data set [7]. Further, the DNA biosynthesis in [6] (10 µmol/L) is 114 % of Control; in [6] (50 µmol/L), 96 % of Control; in data set [6] (100 µmol/L), 127 % of Control. The “DNA synthesis” value in data set [6] is on record as “an increase in DNA synthesis was observed”. Also, the results for the Collagen biosynthesis in data set [8] (10 µmol/L), in [8] (50 µmol/L) and in [8] (100 µmol/L) were 105 % of Control, 171 % of Control and 157 % of Control, respectively.
Take “H-KTTRS-NH2 [Peptide 13, H-Lys-Thr-Thr-Arg-Ser-NH2]”: the “cytotoxicity / cell growth effect” value in data set [1] is “exhibited cell growth effects; also recorded: showed proliferative effect; also recorded: exhibited the effect of cell growth”. Besides, the viability at 24 h, 1 µmol/L in data set [2] came out at 121%. Besides, the viability at 24 h, 10 µmol/L in [2] turned out to be 139%. In addition, the viability at 24 h, 100 µmol/L in data set [2] came to 145%. The IC50 is 0.72 ± 0.036 mM in [3] (setting [10]); 0.708 mM in data set [3] (converted from IC50 of Table 1, read-out: -logIC50 Plasmin (converted)); 4.65 ± 0.233 mM in data set [4]; 17.6 ± 0.88 mM in data set [7]. Further, the DNA biosynthesis in data set [6] (10 µmol/L) is listed as 84 % of Control; in data set [6] (50 µmol/L), 86 % of Control; in [6] (100 µmol/L), 74 % of Control. In addition, the results for the Collagen biosynthesis in [8] (50 µmol/L) and in data set [8] (100 µmol/L) were 155 % of Control and 49 % of Control, respectively.
“Ac-RTTKS-OH [Peptide 26, Ac-Arg-Thr-Thr-Lys-Ser-OH]”: in data set [1], the “cytotoxicity / cell growth effect” value is “exhibited cell growth effects; also recorded: showed proliferative effect; also recorded: exhibited the effect of cell growth”. In addition, the viability at 24 h, 1 µmol/L in data set [2] is 112%. The viability at 24 h, 10 µmol/L in data set [2] was 137%. Besides, in [2], the viability at 24 h, 100 µmol/L turned out to be 150%. Also, the IC50 is 5.45 ± 0.27 mM in data set [3] (setting [10]), 0.81 ± 0.041 mM in [4] and 2.36 ± 0.12 mM in data set [7]. The DNA biosynthesis in data set [6] (10 µmol/L) is reported as 126 % of Control; in data set [6] (50 µmol/L), 112 % of Control; in [6] (100 µmol/L) it was 128 % of Control. Besides, in data set [6], the “DNA synthesis” value is listed as “increased DNA synthesis was observed at all concentrations”. Further, the Collagen biosynthesis in data set [8] (10 µmol/L) is given as 166 % of Control; in data set [8] (50 µmol/L), 77 % of Control; in [8] (100 µmol/L) it was 108 % of Control.
With `C[C@@H](O)[C@H](NC(=O)[C@H](CCCCN)NC(=O)CCCCC1CCSS1)C(=O)N[C@H](C(=O)N[C@@H](CCCCN)C(=O)N[C@@H](CO)C(=O)O)[C@@H](C)O` (mixture of isomers) [Peptide 3, Lip-Lys-Thr-Thr-Lys-Ser-OH], the “cytotoxicity / cell growth effect” value in [1] is recorded as “did not exhibit fibroblast growth”. Also, in [2], the viability at 24 h, 1 µmol/L is 94%; the viability at 24 h, 10 µmol/L came out at 81%; the viability at 24 h, 100 µmol/L was determined as 81%. Also, in data set [3] (setting [10]), the IC50 is 0.47 ± 0.023 mM. For the same compound, the IC50 in data set [4] was 12.8 ± 0.64 mM. Moreover, the “increase of collagen biosynthesis” value in [9] is reported as “over 150%”.

The record behind these values is article PMC6832239, “The Effects of a Novel Series of KTTKS Analogues on Cytotoxicity and Proteolytic Activity” (Molecules, 2019).
